The test system of series [1] is Laodelphax striatellus Fallen - smaller brown planthopper. Briefly: Test Example 1: Effect on smaller brown planthopper, mortality. The series is classed as in vivo. The note with it: 5 ppm, 48 hours, 25° C., ten female adults, rice seedlings. How it is done: Effect on Laodelphax sriatellus Fallen--smaller brown planthopper
The emulsion prepared in Formulation Example 1 was diluted to a predetermined concentration and 2 ml of the diluted emulsion was applied over a bundle of several rice seedlings (about third leaf stage). After drying in air, the treated seedlings were covered with a metal gauze cylinder, in which ten female adults of the smaller brown planthopper were released, followed by placing in a temperature controlled room at 25° C. After 48 hours, the mortality was checked.

The subject of series [2] is resistant strain of Nephotettix cincticeptus Uhler - resistant green rice leafhopper. The experiment in a line: Test Example 2: Effect on resistant green rice leafhopper, mortality. The series is classed as in vivo. To be noted: Nephotettix cincticeps. Here is the method: (§1) Effect on resistant strain of Nephotettix cincticeptus Uhler--resistant green rice leafhopper
The emulsion prepared in Formulation Example 1 was diluted to a predetermined concentration and 3 ml of the diluted emulsion was applied over a bundle of several rice seedlings (about third leaf stage). After drying in air, the treated seedlings were covered with a metal gauze cylinder, in which ten female adults of the leafhopper that is resistant to organophosphate and carbamate insecticides were released, followed by placing in a temperature controlled room at 25° C. After 48 hours, the mortality was checked.

Series [3] shares this test system. Briefly: Test Example 6: Effect on resistant green rice leafhopper, LC50. The series is classed as in vivo. To be noted: Nephotettix cincticeps, 48 h. Here is the method:
as §1
The emulsion prepared in Formulation Example 1 was diluted to predetermined concentrations, and 2 ml of each diluted emulsion was applied over a bundle of several rice seedlings (about third leaf stage). After drying in air, the treated seedlings were covered with a metal gauze cylinder, in which ten female adults of the leafhopper that is resistant to organophosphate and carbamate insecticides were released, followed by placing in a temperature controlled room at 25° C. After 48 hours, the mortality was checked, from which the 50 %-lethal concentration (LC50) was obtained.

Series [4] can be described thus: Test Example 8: Acute Toxicity Test to Mice. To be noted: mouse, in vivo, po; forced peroral administration, corn oil, 6-week mice, up to 14 days. Here is the method:
Acute Toxicity Test to Mice
The compound of the invention having a predetermined concentration was dissolved in corn oil and applied to 6-week mice by forced peroral administration. Up to 14 days from the administration, the number of the died mice was counted periodically, from which the 50 %-lethal […] (LD50) was obtained. One group for the test comprised ten mice.

Series [5] deals with Laodelphax striatellus Fallen - smaller brown planthopper. Briefly: Test Example 5: Effect on smaller brown planthopper, LC50. The note with it: 48 hours, 25° C. In kind it is in vivo. How it is done:
Effect on Laodelphax striatellus Fallen--smaller brown planthopper
The emulsion prepared in Formulation Example 1 was diluted to predetermined concentrations, and 2 ml of each diluted emulsion was applied over a bundle of several rice seedlings (about third leaf stage). After drying in air, the treated seedlings were covered with a metal gauze cylinder, in which ten female adults of the smaller brown planthopper were released, followed by placing in a temperature controlled room at 25° C. After 48 hours, the mortality was checked, from which the medium-lethal concentration […] was obtained.

Series [6] deals with Myzus persicae Suizer - green peach aphid. Briefly: Test Example 7: Effect on green peach aphid, density of living insects. In kind it is in vivo. The note with it: after three days; 100 × (living insects after / before treatment). The text has this:
Effect on Myzus persicae Suizer--green peach aphid
After the application, the seedlings were placed in the greenhouse and, after three days, the number of the aphids was checked, from which the density of the living insects was obtained. The tests were repeated two times.
(§2) Density of Living Insects = 100 × (number of living insects after
(§3) treatment/number of living insects before treatment)

Series [7] shares this test system. The experiment in a line: Test Example 4: Effect on green peach aphid, density of living insects. To be noted: 50 ppm, after three days; 100 × (living insects after / before treatment). The series is classed as in vivo. How it is done: Effect on Myzus persicae Suizer green peach aphid
20 ml of a dilution of the emulsion prepared in Formulation Example 1 was sprayed over potted eggplant seedlings (fourth or fifth leaf stage), as having been grown in a greenhouse, on which the green peach aphids had been parasitic. After the application, the seedlings were placed in the greenhouse and, after three days, the number of the aphids was checked.
as §2, §3

Series [8] has as its system Callosobruchus chinensis Linne - Azuki bean weevil. Briefly: whole plant or invertebrate. The series is classed as in vivo. To be noted: 48 h. Here is the method: Effect on Callosobruchus chinensis Linne--Azuki bean weevil:
An acetone solution of the compound of the invention was added to a Petri dish with a diameter of 9 cm, followed by removal of the acetone by evaporation. Twenty female adults of the Azuki bean weevil, which were 2 to 3 days after emergence were placed in the dish at 25° C. After 48 hours, the mortality was checked.

Where [9] appears, read: 3 ppm, 48 hours, 25° C., ten female adults resistant to organophosphate and carbamate insecticides, read-out: Mortality (%).

In brackets after ≈: the same amount, converted by molar mass. Where two headings read alike, the source gives them in different places. A value given as a limit tells only on which side of the number the result lay.

`COCN1CCN(Cc2ccc(Cl)nc2)C1=N[N+](=O)[O-]` [Reference Chemical (2), 1(2-chloropyridin-5-ylmethyl)-2-nitroimino-3-methoxymethylimidazolidine, reference compound]: the “Mortality (%)” value in series [1] worked out at 20%. In series [2] (setting [9]), the mortality (usually the share of the test organisms that died) at 3 ppm is 30%.

As to `C=CCN1CCN(Cc2ccc(Cl)nc2)C1=N[N+](=O)[O-]` [Reference Chemical 1, 1(2-chloropyridin-5-ylmethyl)-2-nitroimino-3-allylimidazolidine, reference compound], the figures for the LC50 in series [3] and in series [5] were 3 µg/mL (≈ 10.1 µM) and 10 ppm, respectively. Moreover, the median lethal dose (LD50) (commonly the dose expected to kill half of the subjects tested) at 336 h in series [4] lay in the range of 100 to 200 mg/kg. In addition, the “Density of Living Insects” value in series [6] amounted to 25.

Regarding `CCCCC(=CN1CCN(Cc2ccc(Cl)nc2)C1=N[N+](=O)[O-])CC` [No. 33, 1-(2-chloropyridin-5-ylmethyl)-2-nitroimino-3-(2-ethyl-1hexenyl)imidazlidine], in series [1], the “Mortality (%)” value amounted to 100%. The mortality at 3 ppm in series [2] (setting [9]) is 100%.

For the compound `O=[N+]([O-])N=C1N(C=Cc2ccccc2)CCN1Cc1ccc(Cl)nc1` [No. 2], the LC50 (in general, the concentration lethal to half of the exposed cells or organisms) in series [3] is 1.5 µg/mL (≈ 4.19 µM); in series [5] it was 3 ppm. The mortality at 3 ppm in series [2] (48 h) came out at 100%. Also, the “Density of Living Insects” value in series [6] came out at 20.

`COP(=O)(OC)OC=C(Cl)Cl` [DDVP, 0,0-dimethyl-0-(2,2-dichlorovinyl)phosphate]: the “Density of Living Insects” value in series [7] was found to be 30.

In series [4], `COc1ccc(C=CN2CCN(Cc3ccc(Cl)nc3)C2=N[N+](=O)[O-])cc1` [No. 10] showed an LD50 at 336 h greater than 5000 mg/kg. The mortality at 3 ppm in series [2] (setting [9]) was 100%.

With `CC(C)C=CN1CCN(Cc2ccc(Cl)nc2)C1=N[N+](=O)[O-]` [No. 27], the LC50 in series [3] was determined as 0.3 µg/mL (≈ 0.927 µM); in series [5] it was 1 ppm. The compound also showed an LD50 at 336 h in series [4] of 1000 mg/kg. In addition, the “Density of Living Insects” value in series [6] was determined as 0.

For the compound `O=[N+]([O-])N=C1N(CCc2ccccc2)CCN1Cc1ccc(Cl)nc1` [Reference Chemical 2, 1(2-chloropyridin-5-ylmethyl)-2-nitroimino-3-(2-phenylethyl)imidazolidine, reference compound], the values for the LC50 in series [3] and in series [5] were 10 µg/mL (≈ 27.8 µM) and 20 ppm, respectively. For the same compound, the “Density of Living Insects” value in series [6] was 108.

Take `O=[N+]([O-])N=C1N(C=Cc2ccc(Cl)cc2)CCN1Cc1ccc(Cl)nc1` [No. 14]: the “Mortality (%)” value in series [1] is on record as 100%.

In turn, `CCOP(=S)(OCC)Oc1cc(C)nc(C(C)C)n1` [Diazinone] showed a mortality at 0.01 mg/dish, 0.01 mg/dish in series [8] of 58%.

As to `CCSC=CN1CCN(Cc2ccc(Cl)nc2)C1=N[N+](=O)[O-]` [No. 42, 1-(2-chloropyridin-5-ylmethyl)-2-nitroimino-3-(2-ethylthiovinyl)imidazolidine], the “Mortality (%)” value in series [1] was determined as 100%.

For `O=C(NC=CN1CCN(Cc2ccc(Cl)nc2)C1=N[N+](=O)[O-])c1ccccc1` [No. 41], the “Mortality (%)” value in series [1] is 100%.

On to `O=[N+]([O-])N=C1N(C=Cc2ccc3c(c2)OCO3)CCN1Cc1ccc(Cl)nc1` [No. 11], for which the “Mortality (%)” value in series [1] was 100%. Moreover, the mortality at 3 ppm in series [2] (setting [9]) amounted to 100%.

For `O=[N+]([O-])N=C1N(C=Cc2ccccc2Cl)CCN1Cc1ccc(Cl)nc1` [No. 12], the “Mortality (%)” value in series [1] worked out at 100%.

As for `C=CN1CCN(Cc2ccc(Cl)nc2)C1=N[N+](=O)[O-]` [No. 1], the “Mortality (%)” value in series [1] is 100%. In series [2] (setting [9]), the mortality at 3 ppm came to 100%.

As to `O=[N+]([O-])N=C1N(CCc2ccc(Cl)cc2)CCN1Cc1ccc(Cl)nc1` [Reference Chemical (1), 1(2-chloropyridin-5-ylmethyl)-2-nitroimino-3-{2-(4-chlorophenyl)ethyl}imiazolidine, reference compound], the “Mortality (%)” value in series [1] is recorded as 20%. Besides, the mortality at 3 ppm in series [2] (setting [9]) was 25%.

`O=[N+]([O-])N=C1N(C=CCc2ccccc2)CCN1Cc1ccc(Cl)nc1` [No. 40]: the “Mortality (%)” value in series [1] is recorded as 100%. Also, in series [2] (setting [9]), the mortality at 3 ppm worked out at 100%.
